Test results: paper PMC11063903, “Engineering a human P2X2 receptor with altered ligand selectivity in yeast” (The Journal of Biological Chemistry, 2024)
Changes are numbered by the printed parent chain.

Tests used:
WT P2X2 = molecular target: T1, WT P2X2 (Homo sapiens, UniProt Q9UBL9); experiment: Fast GCaMP-mScarletI assay in yeast, WT P2X2; assay type: cell-based; conditions: for Bottom, best fit value / Hillslope, best fit value / Top, best fit value: four-parameter logistic fit of ΔF/ΔT
T1 construct: expressed in transfected cells; host or cells: S. cerevisiae BY4741 background, P2X2 genome-integrated under a galactose-inducible promoter
T1 sequence (Q9UBL9 1-471): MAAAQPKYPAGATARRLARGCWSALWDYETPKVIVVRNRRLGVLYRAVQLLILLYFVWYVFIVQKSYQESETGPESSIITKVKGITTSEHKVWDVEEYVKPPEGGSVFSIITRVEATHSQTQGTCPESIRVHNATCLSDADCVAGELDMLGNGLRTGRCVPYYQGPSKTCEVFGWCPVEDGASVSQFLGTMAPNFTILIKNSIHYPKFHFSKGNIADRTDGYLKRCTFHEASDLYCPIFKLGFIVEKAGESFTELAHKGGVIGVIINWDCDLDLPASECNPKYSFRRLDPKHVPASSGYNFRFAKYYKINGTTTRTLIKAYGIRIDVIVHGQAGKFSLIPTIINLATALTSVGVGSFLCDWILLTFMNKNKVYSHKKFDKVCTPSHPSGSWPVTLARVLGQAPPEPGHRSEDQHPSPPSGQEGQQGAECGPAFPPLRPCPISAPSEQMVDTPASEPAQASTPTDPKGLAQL
Experimental: (§1) Figure 4 Unnatural-ligand gating in LBD libraries.A, WT P2X2 was tested with 1 mM ATP, 500 μM AMP-PNP, and compared to ATP with the broken receptor (K81C K83C) control with 1 mM ATP in the fast GCaMP-mScarletI assay (n = 3). […] B, heat map summarizing AMP-PNP signaling (ΔF/ΔT, fast GCaMP-mScarletI assay) in the site-saturation libraries (n = 2–3). All values are normalized to WT P2X2 with saturating amounts of AMP-PNP (500 μM) and therefore represent low signal (ΔF/ΔT) compared to the ATP ligand. C, F301W, F303Y, and A304W were combinatorially combined and tested against the WT, K81C K83C broken P2X2, and the single mutant clones with both ATP (1 mM, black) and AMP-PNP (500 μM, pink). […] Values here represent signal onset and are not normalized to a positive control (n = 2–5). D–K, dose response of each P2X variant with both ATP (black) and AMP-PNP (pink) in the fast GCaMP-mScarletI assay (n = 3). Statistics were performed via one-way ANOVA with Dunnett’s multiple comparisons with to the “broken” K81C K83C negative control. ∗ represents a p value ≤0.05, ∗∗ is p ≤ 0.01, and ∗∗∗ is p ≤ 0.001.
Given that the yeast-based screen seemed to recapitulate important structural and functional features of human ion channel function, we hypothesized that it might be possible to engineer new P2X2 functionalities in yeast, including new ligand specificity. […] We screened our 133-member library in the presence of 500 μM AMP-PNP (Fig. S7). While the AMP-PNP signal was uniformly low, three substitutions (F301W, F303Y, and A304W) increased signaling 2.5 to 2.8 times relative to the negative control receptor (Figs. 4B, and S7, D, F, and G). To gain a more complete view of the properties of these mutants, dose–response curves were generated with ATP and AMP-PNP (Fig. 4, D–G, and Table S2).
(§2) GCaMP assays were performed as follows. P2X2 GCaMP strains were designed with a bi-cistronic reporter, in which the GCaMP protein was followed by a 2A peptide and a mScarletI reporter ([53]). The co-translated mScarletI was designed to act as a control for plasmid loss, GCaMP breakage via nonsense mutation, and contamination. […] P2X2-GCaMP strains were cultured and induced as previously described. Samples were induced for 24 h to allow for the accumulation of the mature GCaMP protein. Cells were washed three times in 0.1 M MES/Tris buffer and resuspended with MES/Tris with supplemental calcium. Cells were loaded onto a black, clear bottom microplate and imaged on a FlexStation3 plate reader. Samples were imaged in “flex” mode. Samples were imaged for 48 s at an interval of 1.6 s. Fluorescence was measured with an excitation at 485 nm, and emission 525 nm. At the 21 s mark, 100 μl ligand solution was transferred to the cells. For strains with mScarlet, fluorescence was read with excitation 570 nm/emission 610 nm. Slopes were calculated from the last 6 points of measurement and were normalized to the positive control samples. Any replicate in which the mScarlet value was measured to be over 2 standard deviations less than the mean for that set was discarded from further analysis.
(§3) For multiple comparisons in the site-saturation screening data, One-way ANOVA with Dunnett’s multiple comparisons test was performed where every sample was compared to the “broken” negative control. Significance was plotted where ∗ represents a p value ≤0.05, ∗∗ is p ≤0.01, and ∗∗∗ is p ≤0.001. Dose–response curves were fit with nonlinear regression software using a four-parameter logistic curve. All statistics were calculated and plotted in Graphpad Prism software.

P2X2 F301W+F303Y = molecular target: T2, P2X2 F301W+F303Y (Homo sapiens, UniProt Q9UBL9, F301W/F303Y); experiment: Fast GCaMP-mScarletI assay in yeast, P2X2 F301W+F303Y; assay type: cell-based; conditions: n = 3; for Bottom, best fit value / Hillslope, best fit value / Top, best fit value: four-parameter logistic fit of ΔF/ΔT; for EC50: four-parameter logistic fit, unit inferred, unit M, read-out: EC50, best fit value
T2 construct: expressed in transfected cells; host or cells: S. cerevisiae BY4741 background
T2 sequence (Q9UBL9 1-471 F301W/F303Y): T1 sequence (Q9UBL9 1-471) with F301W, F303Y
Experimental: as §1
The combined mutations were synergistic, with F303Y + A304W having a predicted additive effect of ca. Ten-fold, relative to the 73-fold seen.
as §2, §3

Structure (SMILES)	signal of wildtype P2X2 receptor (WT P2X2; 500 μM AMP-PNP, Fig. 4A)	Bottom, best fit value (WT P2X2; n = 3)	Hillslope, best fit value (WT P2X2; n = 3)	Top, best fit value (WT P2X2; n = 3)	Bottom, best fit value (P2X2 F301W+F303Y)	Hillslope, best fit value (P2X2 F301W+F303Y)	Top, best fit value (P2X2 F301W+F303Y)	EC50 (P2X2 F301W+F303Y)	EC50 (WT P2X2; four-parameter logistic fit, n = 3, unit inferred, unit M, read-out: EC50, best fit value)
Nc1ncnc2c1ncn2[C@@H]1O[C@H](COP(=O)(O)OP(=O)(O)NP(=O)(O)O)[C@@H](O)[C@H]1O [AMP-PNP]	nearly undetectable signal	0.429	-1	1.129	0.3038	1.304	12.6	260 µM	–
Nc1ncnc2c1ncn2[C@@H]1O[C@H](COP(=O)(O)OP(=O)(O)OP(=O)(O)O)[C@@H](O)[C@H]1O [ATP]	–	1.37	2.27	70.62	-0.11	0.81	46.60	3.01 µM	5.75 µM
